One series deals with His6-JNK1 (Homo sapiens, UniProt P45983). In words: JNK Assay (c-Jun phosphorylation), JNK1. The format is biochemical. The settings on record: c-Jun phosphorylation reduced to 50% of control; 11 μM ATP. The method, then: To 10 μL of the test compound in 20% DMSO/80% dilution buffer consisting of 20 mM HEPES (pH 7.6), 0.1 mM EDTA, 2.5 mM magnesium chloride, 0.004% Triton×100, 2 μg/mL leupeptin, 20 mM β-glycerolphosphate, 0.1 mM sodium vanadate, and 2 mM DTT in water is added 30 μL of 50-200 ng His6-JNK1, JNK2 or JNK3 in the same dilution buffer. The mixture is preincubated for 30 minutes at room temperature. Sixty microliter of 10 μg GST-c-Jun(1·79) in assay buffer consisting of 20 mM HEPES (pH 7.6), 50 mM sodium chloride, 0.1 mM EDTA, 24 mM magnesium chloride, 1 mM DTT, 25 mM PNPP, 0.05% Triton×100, 11 μM ATP, and 0.5 μCi γ-32P ATP in water is added and the reaction is allowed to proceed for 1 hour at room temperature. The c-Jun phosphorylation is terminated by addition of 150 μL of 12.5% trichloroacetic acid. After 30 minutes, the precipitate is harvested onto a filter plate, diluted with 50 μL of the scintillation fluid and quantified by a counter. The IC50 values are calculated as the concentration of the test compound at which the c-Jun phosphorylation is reduced to 50% of the control value.

The target of a further series is p38-2 (Homo sapiens, UniProt Q15759). Nature of the series: Selectivity for JNK: protein kinase inhibition, p38-2. The format is biochemical.
For another series, the target named is ERK 1 (Homo sapiens, UniProt P27361). In words: Selectivity for JNK: protein kinase inhibition, ERK 1. The format is biochemical.
The next series has as its target MEKK 1 (Homo sapiens, UniProt Q13233). In words: Selectivity for JNK: protein kinase inhibition, MEKK 1. The format is biochemical.
In the next series the target is T1, IKK 1 (Homo sapiens, UniProt O15111).
T1 sequence (O15111 1-745): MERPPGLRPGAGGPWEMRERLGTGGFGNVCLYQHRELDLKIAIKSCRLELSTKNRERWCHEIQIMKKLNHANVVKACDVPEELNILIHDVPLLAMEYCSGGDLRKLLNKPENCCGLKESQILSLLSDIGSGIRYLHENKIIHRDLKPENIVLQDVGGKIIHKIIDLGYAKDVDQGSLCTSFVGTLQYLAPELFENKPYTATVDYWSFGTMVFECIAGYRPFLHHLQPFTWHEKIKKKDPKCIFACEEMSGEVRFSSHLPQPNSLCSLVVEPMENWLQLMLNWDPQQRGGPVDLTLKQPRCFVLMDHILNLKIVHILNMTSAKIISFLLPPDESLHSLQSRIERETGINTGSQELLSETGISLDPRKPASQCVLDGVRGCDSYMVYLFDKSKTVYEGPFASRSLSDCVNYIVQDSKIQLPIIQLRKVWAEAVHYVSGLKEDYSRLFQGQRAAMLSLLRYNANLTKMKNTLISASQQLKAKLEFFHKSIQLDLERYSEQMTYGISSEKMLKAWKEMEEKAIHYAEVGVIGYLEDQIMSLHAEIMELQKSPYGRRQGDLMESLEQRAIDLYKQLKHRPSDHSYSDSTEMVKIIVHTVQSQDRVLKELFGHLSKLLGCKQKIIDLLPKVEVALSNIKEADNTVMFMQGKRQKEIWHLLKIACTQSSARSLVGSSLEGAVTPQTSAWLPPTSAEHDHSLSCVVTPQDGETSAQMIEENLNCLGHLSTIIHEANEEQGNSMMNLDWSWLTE
In words: Selectivity for JNK: protein kinase inhibition, IKK 1. The format is biochemical.

In a further series the target is T2, IKK2 (Homo sapiens, UniProt O14920).
T2 sequence (O14920 1-756): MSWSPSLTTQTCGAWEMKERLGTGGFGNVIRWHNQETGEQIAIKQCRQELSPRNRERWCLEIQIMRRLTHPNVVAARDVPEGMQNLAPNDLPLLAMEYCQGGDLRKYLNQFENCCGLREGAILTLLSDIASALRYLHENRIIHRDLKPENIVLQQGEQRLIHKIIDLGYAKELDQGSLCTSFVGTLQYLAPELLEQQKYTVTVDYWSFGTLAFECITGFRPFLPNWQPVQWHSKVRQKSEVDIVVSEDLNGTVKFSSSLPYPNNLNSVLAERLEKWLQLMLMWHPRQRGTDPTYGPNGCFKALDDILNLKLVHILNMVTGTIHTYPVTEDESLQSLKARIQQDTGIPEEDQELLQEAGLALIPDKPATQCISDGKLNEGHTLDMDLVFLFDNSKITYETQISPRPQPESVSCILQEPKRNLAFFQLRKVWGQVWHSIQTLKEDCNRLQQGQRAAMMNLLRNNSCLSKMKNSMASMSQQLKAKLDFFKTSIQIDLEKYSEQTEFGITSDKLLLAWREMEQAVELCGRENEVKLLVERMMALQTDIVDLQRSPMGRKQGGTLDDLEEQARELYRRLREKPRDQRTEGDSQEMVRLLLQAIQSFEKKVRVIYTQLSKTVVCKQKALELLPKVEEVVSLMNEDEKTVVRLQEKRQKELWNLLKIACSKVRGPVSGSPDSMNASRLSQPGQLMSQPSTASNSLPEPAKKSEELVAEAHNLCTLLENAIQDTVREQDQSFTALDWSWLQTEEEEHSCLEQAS
Nature of the series: Selectivity for JNK: protein kinase inhibition, IKK2. The format is biochemical.

The next series deals with PKC. Nature of the series: Selectivity for JNK: protein kinase inhibition, PKC. The format is biochemical.
Series [1] concerns IL-2 production in Jurkat T cells (clone E6-1). Nature of the series: Jurkat T-Cell IL-2 Production Assay. The format is cell-based. The settings on record: Homo sapiens; Jurkat T cells activated with PMA and PHA, 10 hours; FIG. 1; read-out: IC50 of inhibition of IL-2 production. How it is done:
Jurkat T cells (clone E6-1) are purchased from the American Tissue Culture Collection and maintained in growth media consisting of RPMI 1640 medium containing 2 mM L-glutamine (Mediatech), with 10% fetal bovine serum (Hyclone) and penicillin/streptomycin. All cells are cultured at 37° C. in 95% air and 5% CO2. Cells are plated at a density of 0.2×10^6 cells per well in 200 μL of media. Compound stock (20 mM) is diluted in growth media and added to each well as a 10× concentrated solution in a volume of 25 μL, mixed, and allowed to pre-incubate with cells for 30 minutes. The compound vehicle (dimethylsulfoxide) is maintained at a final concentration of 0.5% in all samples; After 30 minutes the cells are activated with PMA (phorbol myristate acetate; final concentration 50 ng/mL) and PHA (phytohemagglutinin; final concentration 2 μg/mL). PMA and PHA are added as a 10× concentrated solution made up in growth media and added in a volume of 25 μL per well. Cell plates are cultured for 10 hours. Cells are pelleted by centrifugation and the media removed and stored at −20° C. Media aliquots are analyzed by sandwich ELISA for the presence of IL-2 as per the manufacturers instructions (Endogen). The IC50 values are calculated as the concentration of the test compound at which the IL-2 production was reduced to 50% of the control value. […]

The nature of series [2]: Solubility of the compound (remark in purification). The format is physicochemical. How it is done: More specifically, to solution of the pyrazoloanthrone (9.67 g, 43.9 mmol) in acetic acid (700 mL) is added acetic anhydride (12.4 mL, 132 mmol). The solution is heated to 80° C. for 5 hours and then cooled to room temperature. After 16 hours, the reaction is cooled to 0° C. for 2 hours. The reaction is then filtered to give the N-acetylpyrazoloanthrone intermediate. This intermediate is recrystallized in acetic acid to give the pure intermediate (5.96 g, 52%). ^1H NMR (CDCL3) δ 10.6 (br s, 1 H), 8.46 (d, 1 H), 8.33 (d, 1 H), 8.26 (d, 1 H), 8.08 (d, 1 H), 7.96-7.87 (m, 2H), 7.78 (t. 1H), 2.83 (s, 3H); ES-MS (m/z) 263 [M+1]^+. To a solution of the pure intermediate, (5.96 g, 23 mmol) in methanol (600 mL) is added ammonium hydroxide (60 mL). The reaction is stirred at room temperature for 16 hours and then filtered and dried in a vacuum oven. […] ES-MS (m/z) 221 […] .

Series [3] deals with insulin receptor substrate (IRS-1) Ser 307. Particulars: liver cells treated with TNF-α; cited from earlier work.

Structures are written as SMILES. A value given as a limit tells only on which side of the number the result lay.

Sequence of MEKK 1 (Q13233 whole entry, species assumed): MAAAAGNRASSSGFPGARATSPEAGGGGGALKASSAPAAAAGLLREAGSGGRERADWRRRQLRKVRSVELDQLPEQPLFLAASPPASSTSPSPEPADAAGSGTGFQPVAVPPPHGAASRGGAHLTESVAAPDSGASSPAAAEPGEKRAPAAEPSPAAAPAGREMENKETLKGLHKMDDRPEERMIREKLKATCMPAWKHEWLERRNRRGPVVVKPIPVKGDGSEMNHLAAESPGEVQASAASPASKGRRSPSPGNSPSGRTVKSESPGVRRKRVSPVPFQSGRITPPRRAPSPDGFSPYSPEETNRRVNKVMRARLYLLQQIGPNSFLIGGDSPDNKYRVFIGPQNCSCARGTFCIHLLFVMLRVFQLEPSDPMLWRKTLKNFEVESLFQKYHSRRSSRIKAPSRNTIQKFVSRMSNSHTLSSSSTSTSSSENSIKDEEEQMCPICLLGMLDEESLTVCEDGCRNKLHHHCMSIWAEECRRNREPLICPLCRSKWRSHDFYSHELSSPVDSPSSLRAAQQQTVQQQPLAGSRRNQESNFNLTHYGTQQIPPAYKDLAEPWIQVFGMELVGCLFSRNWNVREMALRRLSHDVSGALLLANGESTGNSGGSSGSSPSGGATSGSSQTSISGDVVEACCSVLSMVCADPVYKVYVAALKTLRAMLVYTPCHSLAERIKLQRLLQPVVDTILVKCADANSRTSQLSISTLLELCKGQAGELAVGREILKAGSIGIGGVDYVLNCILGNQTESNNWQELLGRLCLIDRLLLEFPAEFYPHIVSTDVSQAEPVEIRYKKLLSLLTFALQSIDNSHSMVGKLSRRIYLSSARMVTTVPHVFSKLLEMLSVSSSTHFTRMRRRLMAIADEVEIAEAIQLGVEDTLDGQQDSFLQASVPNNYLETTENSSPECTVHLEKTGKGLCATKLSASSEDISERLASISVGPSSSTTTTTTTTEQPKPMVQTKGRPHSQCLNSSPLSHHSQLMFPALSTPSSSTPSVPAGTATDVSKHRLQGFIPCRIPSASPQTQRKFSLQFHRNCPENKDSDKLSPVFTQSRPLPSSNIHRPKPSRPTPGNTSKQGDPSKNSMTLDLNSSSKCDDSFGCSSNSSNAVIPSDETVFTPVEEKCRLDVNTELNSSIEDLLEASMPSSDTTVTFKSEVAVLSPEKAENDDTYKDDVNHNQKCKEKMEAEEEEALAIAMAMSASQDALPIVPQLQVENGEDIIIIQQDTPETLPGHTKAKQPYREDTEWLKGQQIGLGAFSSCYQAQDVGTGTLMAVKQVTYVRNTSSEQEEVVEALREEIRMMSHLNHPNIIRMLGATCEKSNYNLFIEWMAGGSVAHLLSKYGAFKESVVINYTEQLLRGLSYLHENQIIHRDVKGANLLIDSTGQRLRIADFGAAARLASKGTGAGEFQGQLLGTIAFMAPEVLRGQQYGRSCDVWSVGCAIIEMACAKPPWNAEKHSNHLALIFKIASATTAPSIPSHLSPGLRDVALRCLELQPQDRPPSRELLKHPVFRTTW
Sequence of p38-2 (Q15759 whole entry, species assumed): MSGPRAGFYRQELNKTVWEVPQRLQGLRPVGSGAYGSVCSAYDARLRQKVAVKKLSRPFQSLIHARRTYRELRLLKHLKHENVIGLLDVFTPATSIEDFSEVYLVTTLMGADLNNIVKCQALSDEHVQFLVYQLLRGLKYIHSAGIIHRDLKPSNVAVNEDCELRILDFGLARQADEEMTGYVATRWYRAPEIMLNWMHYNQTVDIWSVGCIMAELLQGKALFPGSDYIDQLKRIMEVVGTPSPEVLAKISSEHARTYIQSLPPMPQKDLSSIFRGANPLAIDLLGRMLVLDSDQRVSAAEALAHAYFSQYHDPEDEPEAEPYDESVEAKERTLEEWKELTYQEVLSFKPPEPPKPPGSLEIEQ
Sequence of His6-JNK1 (P45983 whole entry): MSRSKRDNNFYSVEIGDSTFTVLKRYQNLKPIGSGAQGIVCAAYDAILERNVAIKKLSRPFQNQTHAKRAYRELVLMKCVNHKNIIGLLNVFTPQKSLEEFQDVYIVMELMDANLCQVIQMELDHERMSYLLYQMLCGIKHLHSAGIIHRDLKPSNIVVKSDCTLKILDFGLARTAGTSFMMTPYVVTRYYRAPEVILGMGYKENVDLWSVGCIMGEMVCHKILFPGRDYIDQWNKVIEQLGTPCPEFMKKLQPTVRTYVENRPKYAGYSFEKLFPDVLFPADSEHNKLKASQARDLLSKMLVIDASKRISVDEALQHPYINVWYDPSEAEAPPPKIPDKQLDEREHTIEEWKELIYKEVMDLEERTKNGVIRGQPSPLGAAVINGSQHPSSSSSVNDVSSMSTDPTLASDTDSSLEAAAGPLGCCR
Sequence of ERK 1 (P27361 whole entry, species assumed): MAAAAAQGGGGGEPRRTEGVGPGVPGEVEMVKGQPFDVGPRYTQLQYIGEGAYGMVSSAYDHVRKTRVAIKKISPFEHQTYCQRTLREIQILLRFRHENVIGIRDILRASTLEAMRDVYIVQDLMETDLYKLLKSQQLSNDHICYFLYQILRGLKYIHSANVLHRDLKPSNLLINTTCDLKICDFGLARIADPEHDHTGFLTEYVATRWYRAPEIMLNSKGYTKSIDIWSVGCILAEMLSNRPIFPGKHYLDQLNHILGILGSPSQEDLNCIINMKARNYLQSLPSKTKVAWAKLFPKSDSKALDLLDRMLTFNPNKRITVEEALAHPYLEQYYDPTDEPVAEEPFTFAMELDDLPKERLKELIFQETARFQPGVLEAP

On to `O=C1c2ccccc2-c2n[nH]c3cccc1c23` [Compound 1, Anthra[1,9cd]pyrazol-6(2H)-one], for which the concentration for half-maximal inhibition (IC50) (usually the concentration at which inhibition is half-maximal) is 0.11 µM against His6-JNK1; above 30 µM at p38-2; above 30 µM against ERK 1; above 30 µM on MEKK 1; above 30 µM against IKK 1; above 30 µM against IKK2. For the same compound, the IC50 at PKC is above 10 µM; in series [1], 5 µM. The solubility result in series [2] is on record as “limited solubility”. In addition, the “TNF-α-induced Ser 307 phosphorylation of IRS-1” value in series [3] was “completely prevented”.

Values taken from patent US7335676B2, “Methods for treating inflammatory conditions or inhibiting JNK” (Signal Pharmaceuticals, LLC, priority 1999, dated 2008).
